This assay deals with primary rat mixed cortical cells. The experiment in a line: In vitro myelination assay (MBP positive myelin strands, fold myelin pixels above background). The format is cell-based. Conditions: Rattus norvegicus; for fold induction at 1 µM: 1.0 μM compound; for fold induction at 10 µM: 10.0 μM compound. The method in brief: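 P1 rat mixed cortical cultures (neurons, OPCs, oligodendrocytes, astrocytes, microglia) grown 14 days at 37 °C with compound, half-medium refreshed with compound on days 6 and 10. Fixed cells stained for MBP; MBP-positive myelin strand pixels per well quantified by automated imaging, reported as fold over no-compound baseline at 1.0 and 10.0 μM.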

[1] abbreviates: relative to baseline of no added compound, read-out: Fold myelin pixels above background.
Where [2] appears, read: relative to baseline of no added compound, read-out: Fold myelin pixels above background, 1.0 μM.
Where [3] appears, read: relative to baseline of no added compound, read-out: Fold myelin pixels above background, 10.0 μM.
Setting [4] is: read-out: Fold myelin pixels above background relative to baseline of no added compound.

Read-outs that look alike come from different tables or passages of the source.

For `Cc1cc(Nc2ncn(-c3ccnc(C)n3)n2)cc(N2CCN(C3COC3)CC2)c1` [Compound 418, N-[3-methyl-5-[4-(oxetan-3-yl)piperazin-1-yl]phenyl]-1-(2-methylpyrimidin-4-yl)-1,2,4-triazol-3-amine], under setting [1], the fold induction at 1 µM is not above 1 and the fold induction at 10 µM fell in the range of 10 to 100.

As to `COCC1CCN(c2cc(C)cc(Nc3ncn(-c4ccnc(F)c4)n3)c2)CC1` [Compound 122, 1-(2-fluoro-4-pyridyl)-N-[3-[4-(methoxymethyl)-1-piperidyl]-5-methyl-phenyl]-1,2,4-triazol-3-amine], the fold induction at 1 µM under setting [2] fell in the range of 10 to 100. Besides, the fold induction at 10 µM under setting [3] was 1000 to 10000.

In the case of `Cc1cc(Nc2ncn(-c3cc(F)cc(F)c3)n2)cc(N2CCN(CC3CCCO3)CC2)c1` (centres unmarked) [Compound 914, 1-(3,5-difluorophenyl)-N-[3-methyl-5-[4-(tetrahydrofuran-2-ylmethyl)piperazin-1-yl]phenyl]-1,2,4-triazol-3-amine], under setting [4], the fold induction at 1 µM fell in the range of 10 to 100 and the fold induction at 10 µM is not above 1.

On to `[2H]C1([2H])N(CC(F)F)C([2H])([2H])C([2H])([2H])N(c2cc(C)cc(Nc3ncn(-c4cc(F)cc(F)c4)n3)c2)C1([2H])[2H]` [Compound 935, 1-(3,5-difluorophenyl)-N-[3-methyl-5-[2,2,3,3,5,5,6,6-octadeuterio-4-(2,2-difluoroethyl)piperazin-1-yl]phenyl]-1,2,4-triazol-3-amine], for which the fold induction at 1 µM under setting [4] lay within 10 to 100.

As for `Cc1cc(Nc2ncn(-c3cc(F)cc(F)c3)n2)cc(N2C[C@@H]3C[C@H]2CO3)c1` [Compound 822, 1-(3,5-difluorophenyl)-N-[3-methyl-5-[(1S,4S)-2-oxa-5-azabicyclo[2.2.1]heptan-5-yl]phenyl]-1,2,4-triazol-3-amine], under setting [4], the fold induction at 1 µM was 10 to 100 and the fold induction at 10 µM is not above 1.

On to `Cc1cc(Nc2ncn(-c3cc(F)cc(F)c3)n2)cc(N2CCCC2CS(C)(=O)=O)c1` (centres unmarked) [Compound 1051, 1-(3,5-difluorophenyl)-N-[3-methyl-5-[2-(methylsulfonylmethyl)pyrrolidin-1-yl]phenyl]-1,2,4-triazol-3-amine], for which, under setting [4], the fold induction at 1 µM is 10 to 100 and the fold induction at 10 µM was 1 to 10.

In the case of `COCC1CN(c2cc(C)cc(Nc3ncn(-c4cc(F)cc(F)c4)n3)c2)CCO1` (centres unmarked) [Compound 325, 1-(3,5-difluorophenyl)-N-[3-[2-(methoxymethyl)morpholin-4-yl]-5-methyl-phenyl]-1,2,4-triazol-3-amine], the fold induction at 1 µM under setting [2] lay in the range of 10 to 100. In addition, the fold induction at 10 µM under setting [3] lay within 10 to 100.

Consider `NC1CN(c2cc(F)cc(Nc3ncn(-c4ccc(F)cc4F)n3)c2)C1` [Compound 283, N-[3-(3-aminoazetidin-1-yl)-5-fluoro-phenyl]-1-(2,4-difluorophenyl)-1,2,4-triazol-3-amine], for which the fold induction at 1 µM under setting [2] was not above 1. The fold induction at 10 µM under setting [3] is not above 1.

In the case of `Cc1cc(Nc2ncn(-c3ccccc3)n2)cc(C2CCNCC2)c1` [Compound 308, N-[3-methyl-5-(4-piperidyl)phenyl]-1-phenyl-1,2,4-triazol-3-amine], the fold induction at 1 µM under setting [2] was 1000 to 10000. Under setting [3], the fold induction at 10 µM is not above 1.

With `Cc1cc(Nc2ncn(-c3cc(F)cc(F)c3)n2)cc(N2CCC(O)CC2)c1` [Compound 238, 1-[3-[[1-(3,5-difluorophenyl)-1,2,4-triazol-3-yl]amino]-5-methyl-phenyl]piperidin-4-ol], the fold induction at 1 µM under setting [2] lay in the range of 1000 to 10000. In addition, the fold induction at 10 µM under setting [3] lay in the range of 100 to 1000.

With `Cc1cc(Nc2ncn(-c3cccc(F)c3)n2)cc(N2CCC(C3COC3)CC2)c1` [Compound 522, 1-(3-fluorophenyl)-N-[3-methyl-5-[4-(oxetan-3-yl)-1-piperidyl]phenyl]-1,2,4-triazol-3-amine], under setting [1], the fold induction at 1 µM was 100 to 1000 and the fold induction at 10 µM lay within 100 to 1000.

As for `Cc1cc(Nc2ncn(-c3cncc(F)c3)n2)cc(C2COC2)c1` [Compound 447, 1-(5-fluoro-3-pyridyl)-N-[3-methyl-5-(oxetan-3-yl)phenyl]-1,2,4-triazol-3-amine], under setting [1], the fold induction at 1 µM fell in the range of 10 to 100 and the fold induction at 10 µM lay in the range of 10 to 100.

With `Cc1cc(Nc2ncn(-c3cc(F)cc(F)c3)n2)c(F)c(NC2COC2)c1` [Compound 915, N3-[1-(3,5-difluorophenyl)-1,2,4-triazol-3-yl]-2-fluoro-5-methyl-N1-(oxetan-3-yl)benzene-1,3-diamine], under setting [4], the fold induction at 1 µM lay within 1 to 10 and the fold induction at 10 µM is not above 1.

With `Cc1cc(Nc2ncn(-c3cc(F)cc(F)c3)n2)nc(N2CC(C3COC3)C2)c1` [Compound 563, N-[1-(3,5-difluorophenyl)-1,2,4-triazol-3-yl]-4-methyl-6-[3-(oxetan-3-yl)azetidin-1-yl]pyridin-2-amine], under setting [1], the fold induction at 1 µM was not above 1 and the fold induction at 10 µM is 1 to 10.

Regarding `Cc1cc(Nc2ncn(-c3ccccc3)n2)c(F)c(N2CCN(C3COC3)CC2)c1` [Compound 1085, N-[2-fluoro-5-methyl-3-[4-(oxetan-3-yl)piperazin-1-yl]phenyl]-1-phenyl-1,2,4-triazol-3-amine], under setting [4], the fold induction at 1 µM lay within 10 to 100 and the fold induction at 10 µM lay in the range of 10 to 100.

Take `Cc1cc(C#CC2CC2)cc(Nc2ncn(-c3cc(F)cc(F)c3)n2)c1` [Compound 798, N-[3-(2-cyclopropylethynyl)-5-methyl-phenyl]-1-(3,5-difluorophenyl)-1,2,4-triazol-3-amine]: under setting [4], the fold induction at 1 µM was 1 to 10 and the fold induction at 10 µM was in the range of 1 to 10.

As for `Cc1cc(Nc2ncn(-c3ccc(F)c(F)c3)n2)cc(NC2CCN(C3COC3)C2)c1` (centres unmarked) [Compound 113, N3-[1-(3,4-difluorophenyl)-1,2,4-triazol-3-yl]-5-methyl-N1-[1-(oxetan-3-yl)pyrrolidin-3-yl]benzene-1,3-diamine], the fold induction at 1 µM under setting [2] is 1000 to 10000. For the same compound, the fold induction at 10 µM under setting [3] was not above 1.

Regarding `COc1cc(Nc2ncn(-c3cc(F)cc(F)c3)n2)nc(N2CCN(C3COC3)CC2)c1` [Compound 599, N-[1-(3,5-difluorophenyl)-1,2,4-triazol-3-yl]-4-methoxy-6-[4-(oxetan-3-yl)piperazin-1-yl]pyridin-2-amine], under setting [1], the fold induction at 1 µM lay within 10 to 100 and the fold induction at 10 µM is 10 to 100.

Consider `CC(=O)N1CCC(c2cc(C)cc(Nc3ncn(-c4cc(F)cc(F)c4)n3)c2)CC1` [Compound 90, 1-[4-[3-[[1-(3,5-difluorophenyl)-1,2,4-triazol-3-yl]amino]-5-methyl-phenyl]-1-piperidyl]ethanone], for which the fold induction at 1 µM under setting [2] lay in the range of 100 to 1000. In addition, the fold induction at 10 µM under setting [3] lay in the range of 1 to 10.

Consider `Clc1cc(Nc2ncn(-c3ccccc3)n2)cc(N2CCOCC2)c1` [Compound 335, N-(3-chloro-5-morpholino-phenyl)-1-phenyl-1,2,4-triazol-3-amine], for which the fold induction at 1 µM under setting [2] is 1000 to 10000. In addition, the fold induction at 10 µM under setting [3] is 10 to 100.

For `COCC1CCN(c2cc(C)cc(Nc3ncn(-c4cc(F)cc(F)c4)n3)n2)CC1` [Compound 619, N-[1-(3,5-difluorophenyl)-1,2,4-triazol-3-yl]-6-[4-(methoxymethyl)-1-piperidyl]-4-methyl-pyridin-2-amine], under setting [1], the fold induction at 1 µM was 1 to 10 and the fold induction at 10 µM was 1 to 10.

(Values after patent US10766869B2, “Triazoles for the treatment of demyelinating dieases” (Vertex Pharmaceuticals Incorporated, priority 2015, dated 2020).)
